From paper PMC4434089 (Biotechnology, Biotechnological Equipment, 2014)
Like-named read-outs stand apart in the source and are kept apart here. Marks after values point to notes of the source that are not given here.

Columns and labels:
[1] = tested on: Aβ; conditions: SPR, cited from earlier work
Text: This was further supported by a recent SPR-based Aβ study that determined a ka of 0.01 complexes per second for Aβ association following first-order kinetics, whilst the kd wa ...

[2] = tested on: Aβ; conditions: cited from earlier work
Text: According to a model developed by Petkova et al.,[81] the 12-21 and 30-40 regions of the Aβ peptide form the β-she ...

[3] = tested on: amylin-mediated cytotoxicity; parameters: method as in PMID 20093026; conditions: cited from earlier work
[4] = tested on: full length amylin; parameters: method as in 2 sources, one per row (each row's own in cited_ref): ref 58 = [58]; PMID 14565847; doi:10.1042/BJ20030852; Jaikaran E Nilsson MR Clark A Biochem J. 2004 377 709 716 14565847 10.1042/BJ20030852 PMC1223903 ||| ref 68, 93 = [68]; PMID 12054816; doi:10.1016/S0022-2836(02)00164-X; Scrocchi LA Chen Y Waschuk S Wang F Cheung S Darabie AA McLaurin J Fraser PE J Mol Biol. 2002 318 697 706 12054816 10.1016/S0022-2836(02)00164-X || [93]; PMID 12648568; doi:10.1016/s1047-8477(02)00630-5; Scrocchi LA Ha K Chen Y Wu L Wang F Fraser PE J Struct Biol. 2003 141 218 227 http://dx.doi.org/10.1016/s1047-8477(02)00630-5 12648568 10.1016/s1047-8477(02)00630-5; conditions: cited from earlier work
[5] = tested on: amylin; experiment: NTA of amylin aggregation, alone or with amylin derivatives; assay type: biochemical, human
Experimental: NTA measurements were performed with a NanoSight LM20 instrument (NanoSight, United Kingdom) equipped with a 640 nm laser and a temperature controlled sample chamber. […] The sample temperature was maintained at 37 °C for the entire duration of the experiment. These experimental conditions were similar to that used for a previously reported cytotoxicity experiment,[73] thus allowing correlation of results obtained from the two techniques. […] Once again, samples were maintained at 37 °C and 60 s video footage were recorded every 10 min for the first hour and then at 24 h. All videos were captured with the single shutter and gain modes. Analysis was performed using NanoSight NTA version 2.2 software with a viscosity setting of 0.70.

[6] = tested on: sensor chip-bound biotinylated amylin; parameters: method as in PMID 14565847; conditions: insulin over sensor chip-bound biotinylated amylin; cited from earlier work

## Aβ1–40: amyloid beta; SPR-derived kinetics were generated using the 1–40 form of Aβ
[1]; conditions similar to present study
  Aβ association rate: 0.01 complexes per second
[1]; global fit, first-order kinetic model
  Aβ dissociation kd: 0.00223 s⁻¹
[1]; printed spread ± 1.3 × 10^−4 s^−1
  Aβ dissociation kd: 0.00092 s⁻¹
[1]; ref 39 (by order of citation)
  Aβ dissociation time: 7.5 min
[1]; ref 80 (by order of citation)
  Aβ dissociation time: 18 min
[2]
  aggregation rate compared with 1–42 form of Aβ: aggregate much more slowly than the 1–42 form of Aβ

## NFGAIL [n4]
[3]
  reduction of amylin-mediated cytotoxicity: more than 40%
[4]
  fibril formation of full length amylin in presence of derivative: fibril formation of full length amylin was enhanced
[5]; NTA compared with previously published reports
  implied effect on fibrillogenesis of amylin: increase fibrillogenesis of amylin to an aggregate that is larger than 1000 nm
[5]; NTA, 10 min, 37 °C, amylin 50 μmol L^−1 alone (A) or with 250 μmol L^−1 derivative, 10 mmol L^−1 sodium phosphate, 50 mmol L^−1 NaCl, pH 7.4, duplicate, p < 0.05 less than A: n1, n5, m5
  Concentration of aggregates 100–150 nm, 10 min: 3.8 ×10^7 aggregates/mL
[5]; NTA, 10 min, 37 °C, amylin 50 μmol L^−1 alone (A) or with 250 μmol L^−1 derivative, pH 7.4, duplicate, p < 0.05 less than A: n1, n3, n5, m1, m2, m3, m4, m5
  Concentration of aggregates 200–300 nm, 10 min: 5.1 ×10^7 aggregates/mL
[5]; NTA, 10 min, 37 °C, amylin 50 μmol L^−1 alone (A) or with 250 μmol L^−1 derivative, pH 7.4, duplicate, p < 0.05 less than A: n1, n5, m5
  Concentration of aggregates 150–200 nm, 10 min: 2.3 ×10^7 aggregates/mL
[5]; NTA, 10 min, amylin:derivative 50:250 μmol L^−1, unpaired t-test
  concentrations of 100–150, […]–200 and 200–300 nm aggregates at 10 min vs amylin only: not significantly different
[5]; NTA, 24 h, 37 °C, amylin 50 μmol L^−1 alone (A) or with 250 μmol L^−1 derivative, pH 7.4, duplicate, p < 0.05 less than A: n1, n2, m5, significantly more: m2
  Concentration of aggregates 100–150 nm, 24 h: 1.7 ×10^7 aggregates/mL
[5]; NTA, 24 h, 37 °C, amylin 50 μmol L^−1 alone (A) or with 250 μmol L^−1 derivative, pH 7.4, duplicate, p < 0.05 less than A: n1, n2, n3, n4, n5, m5
  Concentration of aggregates 200–300 nm, 24 h: 1.7* ×10^7 aggregates/mL
[5]; NTA, 24 h, 37 °C, amylin 50 μmol L^−1 alone (A) or with 250 μmol L^−1 derivative, pH 7.4, duplicate, p < 0.05 less than A: n1, n2, n5, m5
  Concentration of aggregates 150–200 nm, 24 h: 1.8 ×10^7 aggregates/mL
[5]; NTA, 24 h, amylin:derivative 50:250 μmol L^−1, p < 0.05
  number of 200–300 nm aggregates at 24 h vs amylin only: significantly lower than in samples containing amylin only

## insulin: insulin, binding to sensor chip-bound biotinylated amylin
[6]
  response change during binding to biotinylated amylin: 15 RUs
[4]
  effect on fibril formation: inhibit fibril formation
